According to PMC10096398, “Discovery of Novel EGFR Inhibitor Targeting Wild-Type and Mutant Forms of EGFR: In Silico and In Vitro Study” (Molecules, 2023):
Structures can show the parent of a compound that is named as a salt. Where two headings read alike, the source gives them in different places. Each block holds one compound with its values, some of them ahead of it.

Columns and labels:
[1] = tested on: A549; assay: MTT cell viability assay; assay type: cell-based; details: Homo sapiens, read-out: IC50 (μM) A549
Experimental: (§1) The cytotoxicity activities of potent PD derivatives obtained from the SIE method against A549 and H1975, as well as Vero (which are adherent cells), were assessed using MTT (3-(4,5-dimethyl-2-thiazolyl)-2,5-diphenyl-2H-tetrazolium bromide) assays. The A549 and Vero cells were grown in complete DMEM medium whereas H1975 cells were grown in complete RPMI medium supplemented with 10% (v/v) FBS, 100 U/mL penicillin and 100 µg/mL streptomycin. All cells were routinely cultured at 37 °C in a 5% (v/v) CO2, 95% (v/v) air humidified incubator. A549 (5 × 10^3 cells per well), H1975 (5 × 10^3 cells per well), and Vero (2 × 10^3 cells per well) cells were seeded into 96-well plates and incubated overnight. After cell attachment, cells were replenished using fresh medium with 0.1% FBS containing various concentrations of potent PD derivatives and known drugs and then incubated at 37 °C for 72 h. After that, fresh medium containing MTT solution (5 mg/mL) was added and incubated at 37 °C. After 3 h, the formed formazan crystal was dissolved with 100 μL of dimethyl sulfoxide (DMSO). Finally, the absorbance of formazan solution was measured at a wavelength 570 nm using a microplate reader (Infinite M200 microplate reader, Tecan, Männedorf, Switzerland). The independent treatments were repeated in triplicate. The IC50 determination of compounds was achieved using GraphPad Prism version 9.0.

[2] = tested on: H1975; assay: MTT cell viability assay; assay type: cell-based; details: Homo sapiens, read-out: IC50 (μM) H1975
Experimental: as §1

[3] = target: L858R/T790M EGFR (Homo sapiens, UniProt P00533, L858R/T790M); assay: EGFR inhibitory activity, ADP-Glo kinase assay; assay type: biochemical; details: for IC50: ADP-Glo
Experimental: (§2) Firstly, 8 µL of buffer (40 mM Tris-HCl pH 7.5, 20 mM MgCl2, and 0.1 mg/mL bovine serum albumin) were added to a 384-well plate (Promega, solid white). […] Thirdly, 5 µL of the ADP-Glo reagent was added and incubated for 40 min. Finally, 10 µL of kinase detection reagent was added and incubated at room temperature for 30 min and was detected by measuring the luminescence using a microplate reader (Infinite M200 microplate reader, Tecan, Männedorf, Switzerland).

[4] = tested on: Vero; assay: MTT cell viability assay, normal cell line; assay type: cell-based, monkey; details: 72 h, read-out: IC50 (μM) Vero
Experimental: as §1

[5] = target: wild-type EGFR (Homo sapiens, UniProt P00533); assay: EGFR inhibitory activity, ADP-Glo kinase assay; assay type: biochemical; details: for IC50: ADP-Glo; for EGFR inhibitory screening: single 1 µM concentration
Experimental: as §2

[6] = target: L858R/T790M/C797S EGFR (Homo sapiens, UniProt P00533, C797S/L858R/T790M); assay: EGFR inhibitory activity, ADP-Glo kinase assay; assay type: biochemical
Experimental: as §2

[7] = Primates, Vero, Vero normal cells, MTT

melting point: 183 to 185 °C
SMILES: Cc1ncc(Cn2cnc(Cl)c2Cl)c2cc(C(=O)c3ccc(Br)cc3)oc12

IC50 ([1]; A549, MTT, 72 h): 18.1 ± 1.57 µM
IC50 ([2]; NCI-H1975, H1975, MTT, 72 h): 33.9 ± 0.86 µM
IC50 [3]: 10.5 ± 0.71 nM
EGFR inhibitory screening ([3]; single 1 µM concentration): active
IC50 [5]: 11.6 ± 1.3 nM
EGFR inhibitory screening [5]: active
IC50 [6]: 21.9 ± 1.79 nM
IC50 (nM) L858R/T790M/C797S [6]: double-digit nanomolar range
SMILES: Cc1ncc(CN2CCN(Cc3cccnc3)CC2)c2cc(C(=O)c3ccc4c(c3)OCCO4)oc12 [PD13, (2,3-Dihydrobenzo[d][1,4]dioxin-6-yl){7-methyl-4-[(4-(pyridin-3-ylmethyl)piperazin-1-yl)methyl]furo[2,3-c]pyridin-2-yl}methanone dihydrochloride]
IC50 [4, 7]: > 100 µM

melting point: 147 to 148 °C
SMILES: COc1ccc(C(=O)c2cc3c(CO)cnc(C)c3o2)cc1 [PD1, [4-Hydroxymethyl-7-methylfuro[2,3-c]pyridin-2-yl](4-methoxyphenyl)methanone]

melting point: 224 to 227 °C
SMILES: Cc1ncc(CN2CCN(Cc3cccnc3)CC2)c2cc(C(=O)c3ccc4c(c3)OCCO4)oc12 (as salt: hydrochloride) [PD13, (2,3-Dihydrobenzo[d][1,4]dioxin-6-yl){7-methyl-4-[(4-(pyridin-3-ylmethyl)piperazin-1-yl)methyl]furo[2,3-c]pyridin-2-yl}methanone dihydrochloride]

SMILES: C=CC(=O)Nc1cc(Nc2nccc(-c3cn(C)c4ccccc34)n2)c(OC)cc1N(C)CCN(C)C [Osimertinib]
IC50 ([1]; A549, 72 h): 25.3 ± 1.21 µM
IC50 ([2]; NCI-H1975, 72 h): 18.3 ± 2 µM
IC50 ([4]; Primates, Vero): > 50 µM

IC50 ([1]; A549, MTT, 72 h): 19.7 ± 0.59 µM
IC50 ([2]; NCI-H1975, H1975, MTT, 72 h): 27.3 ± 1.02 µM
IC50 [3]: 91 ± 2.01 nM
melting point: 243 to 247 °C
IC50 [5]: 4.78 ± 0.73 nM
EGFR inhibitory activity compared to erlotinib ([5]; ratio of IC50 values): > 2 fold
EGFR inhibitory screening [5]: only against wild-type EGFR
IC50 [6]: 104 ± 3.62 nM
SMILES: Cc1ncc(CN2CCN(Cc3cccnc3)CC2)c2cc(C(=O)c3ccc(Br)cc3)oc12.Cl.Cl [PD4, (4-Bromophenyl){7-methyl-4-[(4-(pyridin-3-ylmethyl)piperazin-1-yl]methyl}furo[2,3-c]pyridin-2-yl)methanone dihydrochloride]
IC50 [4, 7]: < 100 µM
IC50 ([4]; Vero normal cells, MTT): > 50 µM

melting point: 233 to 239 °C
SMILES: Cc1ncc(CN2CCN(C=O)CC2)c2cc(C(=O)c3ccc(Br)cc3)oc12.Cl

IC50 ([1]; A549, 72 h): 34.7 ± 0.67 µM
IC50 ([2]; NCI-H1975, 72 h): 27.3 ± 1.87 µM
SMILES: CN(C)C/C=C/C(=O)Nc1cc2c(Nc3ccc(F)c(Cl)c3)ncnc2cc1O[C@H]1CCOC1 [Afatinib]
IC50 ([4]; Primates, Vero): > 50 µM

melting point: 129 to 132 °C
SMILES: Cc1ncc(CN2CCN(CCC#N)CC2)c2cc(C(=O)c3ccc(Br)cc3)oc12 [PD10, 3-{4-[(2-(4-bromobenzoyl)-7-methylfuro[2,3-c]pyridin-4-yl)methyl]piperazin-1-yl}propanenitrile]

melting point: 224 to 225 °C
SMILES: Cc1ncc(CN2CCN(Cc3ccccn3)CC2)c2cc(C(=O)c3ccc(Br)cc3)oc12.Cl.Cl [PD3, (4-Bromophenyl){7-methyl-4-[(4-(pyridin-2-ylmethyl)piperazin-1-yl]methyl}furo[2,3-c]pyridin-2-yl)methanone dihydrochloride]

melting point: 278 to 280 °C
SMILES: Cc1ncc(Cn2ccnc2)c2cc(C(=O)c3ccc(Br)cc3)oc12.Cl

IC50 ([1]; A549, 72 h): 19.4 ± 0.79 µM
IC50 ([2]; NCI-H1975, 72 h): 41.8 ± 2.19 µM
SMILES: C#Cc1cccc(Nc2ncnc3cc(OCCOC)c(OCCOC)cc23)c1 [Erlotinib]
IC50 ([4]; Primates, Vero): > 30 µM
